Patent US5321123A, “Protein S polypeptides and anti-peptide antibodies that inhibit protein S binding to C4B binding protein, diagnostic systems and therapeutic methods” (The Scripps Research Institute, priority 1992, dated 1994)
Where two headings read alike, the source gives them in different places. Each block holds one molecule with its values, some of them ahead of it. Bridge positions count the residues as written; N and C are the ends. Peptide text beside a SMILES is read from it.

Columns and labels:
[1] = molecular target: T1, PS:C4BP complex (Homo sapiens, UniProt P04003+P20851); experiment: Peptide inhibition of b-C4BP binding to PS-coated wells; details: b-C4BP 1 μg/ml, peptide 0-500 μM
T1 construct: Purified human C4BP was obtained from 5 liters (l) of human citrated plasma; from tissue; host or cells: human citrated plasma (C4BP); protein S by the method of Schwarz et al
T1 sequence (P04003 49-597): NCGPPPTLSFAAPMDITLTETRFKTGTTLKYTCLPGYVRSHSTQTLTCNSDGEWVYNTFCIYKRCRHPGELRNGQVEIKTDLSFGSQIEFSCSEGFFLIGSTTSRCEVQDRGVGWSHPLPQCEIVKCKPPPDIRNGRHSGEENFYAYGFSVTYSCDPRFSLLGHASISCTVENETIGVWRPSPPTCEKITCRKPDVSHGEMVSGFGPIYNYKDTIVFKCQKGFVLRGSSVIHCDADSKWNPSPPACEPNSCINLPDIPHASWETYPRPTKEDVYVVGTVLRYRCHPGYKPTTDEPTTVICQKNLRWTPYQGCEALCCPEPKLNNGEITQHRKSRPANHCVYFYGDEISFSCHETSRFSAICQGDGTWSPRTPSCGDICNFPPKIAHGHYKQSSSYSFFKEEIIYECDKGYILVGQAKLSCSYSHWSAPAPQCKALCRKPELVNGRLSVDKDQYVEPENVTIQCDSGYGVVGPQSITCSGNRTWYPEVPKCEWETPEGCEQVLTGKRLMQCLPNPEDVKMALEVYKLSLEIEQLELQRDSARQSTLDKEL
T1 sequence (P20851 18-252): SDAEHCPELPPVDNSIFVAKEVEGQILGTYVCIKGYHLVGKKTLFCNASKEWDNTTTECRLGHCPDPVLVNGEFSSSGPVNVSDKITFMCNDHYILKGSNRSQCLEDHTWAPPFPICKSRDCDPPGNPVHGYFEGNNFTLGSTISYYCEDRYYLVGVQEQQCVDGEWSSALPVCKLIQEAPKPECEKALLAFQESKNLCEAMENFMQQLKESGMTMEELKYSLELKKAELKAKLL
Method: An alternative approach was used to test the ability of the peptides, PSP-loop, PSP-424K and PSP-428K, in comparison with that seen with the PSP-12 peptide, in inhibiting the binding of C4BP to PS. For this assay, the microtiter wells were coated with purified PS diluted to a concentration of 10 μg/ml in carbonate-coating buffer as described above. The wells were maintained to allow the PS to bind to the well walls. After the maintenance period, the wells were blocked also as described above. The selected PSP peptides were separately admixed at various concentrations ranging from 0-500 μM with biotinylated-C4BP (b-C4BP) at a concentration of 1 μg/ml. The admixtures were maintained on a fluid phase plate for 2 hours at room temperature to form peptide-C4BP complexes.
Fifty μl of the complexed admixtures were separately admixed to the prepared […] and maintained for 1 hour at room temperature. Thereafter, the plate was washed and processed for developing as described above.

[2] = molecular target: T1, PS:C4BP complex; experiment: Fluid-phase peptide inhibition of PS binding to b-C4BP, detected on MAb S-7-coated plates; details: b-C4BP 0.5 μg/ml, PS 1.0 μg/ml
Method: (§1) An alternative approach was used to test the ability of the peptides, PSP-loop, PSP-424K and PSP-428K, in comparison with that seen with the PSP-12 peptide, in inhibiting the binding of PS to C4BP, the result of which was detected on monoclonal antibody-coated plates. For this assay, biotinylated-C4BP (b-C4BP), PS and PSP peptides were admixed together at the respective concentrations of 0.5 μg/ml, 1.0 μg/ml and at a range of 0-500 μM (V:V:V). The admixtures were maintained for 2 hours at room temperature on a fluid phase plate to allow the binding and/or inhibition thereof of PS to C4BP by the PS-derived peptides. After the maintenance period, 50 μl of the admixture were separately admixed to wells previously coated with 10 μg/ml of MAb S-7 (ATCC No. HB 80819). The admixtures were maintained for 1 hour at room temperature to allow for the binding of C4BP to MAb S-7-antibody-coated plates. The binding of biotinylated complexes to the antibody-coated plates was detected as described in Example 5Aii.

[3] = molecular target: T1, PS:C4BP complex; experiment: Fluid-phase peptide inhibition of b-PS binding to C4BP, detected on anti-C4BP polyclonal antibody-coated plates
Method: as §1, with “polyclonal” for “monoclonal”, “C4BP, biotinylated-PS (b-PS)” for “biotinylated-C4BP (b-C4BP), PS”, “3” for “0.5”, “0.6” for “1.0”, “anti-C4BP IgG polyclonal antibody.” for “MAb S-7 (ATCC No. HB 80819).”, “C4BP-antibody-coated” for “MAb S-7-antibody-coated”

[4] = molecular target: T2, interaction of protein S with C4BP (Homo sapiens, UniProt P04003+P20851); details: in vitro; Walker et al., Weinstein et al.; cited from earlier work
T2 sequence (P04003 49-597): T1 sequence (P04003 49-597)
T2 sequence (P20851 18-252): T1 sequence (P20851 18-252)

[5] = molecular target: T1, PS:C4BP complex; experiment: Peptide Inhibition Assay: b-PS binding to C4BP in solid-phase
Method: Each of the peptides produced as described in Example 1 and listed in Table 1 was analyzed for its ability to inhibit the binding of native protein S in liquid-phase to C4BP in solid-phase.
Microtiter wells of a 96 well plate were coated with 50 μl of 10 μg/ml purified C4BP in carbonate buffer (0.02M Na2 CO3, pH 9.0, 0.02% Na-Azide). After blocking with 10% BSA in TBS, 50 μl of different concentrations of peptides diluted in washing buffer (TBS, 0.2% BSA, 5mM CaCl, 0.02% Tween 20) were separately admixed to C4BP-coated wells. After 2 hours at room temperature, 50 μl of a solution of biotinylated protein S, were admixed to each well to form a second binding admixture having a final concentration of 2 μg/ml. The plate was agitated and the samples Were incubated 1 hour at room temperature. The samples were discarded and the wells were washed 3 times with washing buffer. […] The resulting optical densities of the reaction solutions were read as described before in Example 2C. […]
where I is expressed as a percent; and where 100%=delta/min of the amount of b-PS which specifically bound to C4BP-coated wells in the absence of any competing PS-peptide; and where deltaT =the change in absorbance (405 nm) in the presence of competing PS-peptide; and where deltaC =the change in absorbance (405 nm) in the absence of competing PS-peptide.

[6] = molecular target: T3, C4BP (Homo sapiens, UniProt P04003+P20851); details: read-out: dissociation constant (Kd) for the protein S - C4BP interaction, cited from earlier work
T3 sequence (P04003 49-597): T1 sequence (P04003 49-597)
T3 sequence (P20851 18-252): T1 sequence (P20851 18-252)

IC90 [1]: ~250 µM
IC90 [2]: ~250 µM
inhibition of binding of b-PS to C4BP compared with PSP-loop [3]: inhibitory but with lower effectiveness
Molecule: CC[C@H](C)[C@H](NC(=O)CNC(=O)[C@@H](N)CO)C(=O)N[C@@H](CCCCN)C(=O)N[C@@H](CCCCN)C(=O)N[C@H](C(=O)N[C@H](C(=O)N[C@@H](CCC(N)=O)C(=O)N[C@@H](CCC(=O)O)C(=O)N[C@@H](CCCCN)C(=O)N[C@@H](CCC(N)=O)C(=O)N[C@@H](CC(N)=O)C(=O)N[C@@H](CCCCN)C(=O)N[C@@H](CS)C(N)=O)[C@@H](C)CC)[C@@H](C)CC [PSP-424K, SGIKKIIQEKQNKC] (H-SGIKKIIQEKQNKC-NH2; N-terminus assumed)

Molecule: CC[C@H](C)[C@H](NC(=O)[C@H](C)NC(=O)[C@H](CCC(=O)O)NC(=O)[C@H](CC(=O)O)NC(=O)[C@H](CC(C)C)NC(=O)[C@H](CC(=O)O)NC(=O)[C@H](CC(C)C)NC(=O)[C@H](CCC(N)=O)NC(=O)[C@@H](NC(=O)CN)C(C)C)C(N)=O [PSP-605, GVQLDLDEAI] (H-GVQLDLDEAI-NH2; N-terminus assumed)
inhibition of the interaction of protein S with C4BP [4]: inhibits the interaction of protein S with C4BP in vitro

Molecule: CC[C@H](C)[C@@H]1NC(=O)[C@H](CO)NC(=O)[C@H](C)NC(=O)CNC(=O)[C@H](CCC(N)=O)NC(=O)[C@H](CCCCN)NC(=O)[C@H](CCSC)NC(=O)[C@H](CC(C)C)NC(=O)[C@H](CC(N)=O)NC(=O)[C@H](Cc2c[nH]c3ccccc23)NC(=O)[C@H](CO)NC(=O)[C@H](CCCNC(=N)N)NC(=O)[C@H]([C@@H](C)CC)NC(=O)[C@@H](N)CSSC[C@@H](C(N)=O)NC(=O)[C@H](Cc2c[nH]cn2)NC(=O)[C@H](CCCCN)NC(=O)[C@H](CC(N)=O)NC(=O)[C@H](CCC(N)=O)NC(=O)[C@H](CCCCN)NC(=O)[C@H](CCC(=O)O)NC(=O)[C@H](CCC(N)=O)NC(=O)[C@H]([C@@H](C)CC)NC(=O)[C@H]([C@@H](C)CC)NC(=O)[C@H](CCC(=O)O)NC(=O)[C@H](CCCCN)NC1=O [PSP-loop] (H-CIRSWNLMKQGASIKEIIQEKQNKHC-NH2; disulfide 1-26 (inferred); N-terminus and C-terminus assumed)
peptide concentration that completely inhibits the binding of PS to C4BP ([5]; subsequent experiments): approximately 250 μM
IC50 ([3]; C4BP 3 μg/ml, b-PS 0.6 μg/ml): ~40 µM

inhibition of PS:C4BP complex formation relative to PS-peptides from other regions of protein S [5]: strong inhibition
Molecule: CPEGYRYNLKSKSC [PSP-7]

Molecule: Protein S: vitamin K-dependent single chain plasma glycoprotein of 75,000 daltons, cofactor to activated protein C
Kd ([6]; in the presence of Ca++): 0.0006 µM
Kd ([6]; in the presence of EDTA): 0.001 µM
